From patent publication US5962513A, “2-aminomethyl-chromans effective in the treatment of psychoses and depression” (Bayer Aktiengesellschaft, priority 1991, dated 1999)
Where a name gives a salt, the structure may show the parent alone.

Key:
5-HT1A receptor = biological target: T1, 5-HT1A receptor (Bos taurus, UniProt F6Q2H9); experiment: Affinity for the 5-HT1A receptor, 3H-ipsapiron binding to calf hippocampus membranes; details: 3H-ipsapiron radioligand
T1 construct: 5-HT1A receptors in calf hippocampus membranes; from tissue; host or cells: calf hippocampus membranes
T1 sequence (F6Q2H9 1-422): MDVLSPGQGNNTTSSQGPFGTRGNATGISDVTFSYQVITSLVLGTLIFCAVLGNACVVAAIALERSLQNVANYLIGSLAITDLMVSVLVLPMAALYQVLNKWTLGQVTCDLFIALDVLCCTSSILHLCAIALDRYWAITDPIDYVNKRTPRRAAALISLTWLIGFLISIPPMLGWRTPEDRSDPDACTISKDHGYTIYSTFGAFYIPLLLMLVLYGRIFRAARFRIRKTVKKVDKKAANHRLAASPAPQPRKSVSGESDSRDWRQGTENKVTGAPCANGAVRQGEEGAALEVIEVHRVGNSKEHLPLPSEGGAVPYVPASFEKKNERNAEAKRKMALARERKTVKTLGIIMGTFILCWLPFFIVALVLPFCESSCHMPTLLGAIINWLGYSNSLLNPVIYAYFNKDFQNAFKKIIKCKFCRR
Method: 2.) Affinity for the 5-HT1A receptor [W. U. Dompert et al., Naunyn-Schmeideberg's Arch. Pharmacol. (1985), 328, 467-470]. In this test, the binding of ^3 H-ipsapiron to 5-HT1A receptors in calf hippocampus membranes is measured.

sigma receptor = experiment: Affinity for the sigma receptor, DTG binding to calf hippocampus membranes; details: 3-di-o-tolyl-guanidine (DTG), Ki calculated from IC50
Method: 3.) Affinity for the sigma receptor The sigma receptor binding test is described in detail by E. Weber et al. (1986), Proc. Natl. Acad. Sci. 83, 8784-8788 and M. P. Kavanaugh et al., (1988), Proc. Natl. Acad. Sci. 85, 2844. […] In this binding test, IC50 values which indicate the test substance concentration at which 50% of the binding of the radioligand is suppressed are determined. The inhibition constants Ki are calculated from these taking into account the dissociation constants and the concentration of radioligands.

5-HT1 receptor = experiment: Affinity for the 5-HT1 receptor, 3H-serotonin binding to calf hippocampus membranes; details: 3H-serotonin radioligand
Text: 1.) Affinity for the 5-HT1 receptor
The high affinity of the compounds according to the invention for 5-hydroxytryptamine receptors of the sub-type 1 is shown by way of example in Table A. The values given are data which have been determined from receptor binding studies using calf hippocampus membrane preparations. ^3 H-Serotonin was used as the radioactively labelled ligand for this.

| Compound | Ki (5-HT1A receptor) | Ki (sigma receptor) | Ki (5-HT1 receptor) |
| --- | --- | --- | --- |
| COc1cccc2c1OC(CNCC1CCCCC1)CC2 (stereo not drawn) [Example 17, N-Cyclohexylmethyl-2-aminomethyl-8-methoxychroman hydrochloride] | 0.7 nM | 8 nM | – |
| CN(CC1CCN(Cc2ccccc2)CC1)CC1CCc2ccccc2O1 (stereo not drawn) [Example 35] | 28 nM | – | – |
| COc1cccc2c1OC(CNCc1ccc(C(F)(F)F)cc1)CC2 (stereo not drawn) [Example 22] | – | – | 6 nM |
| c1ccc2c(c1)CC[C@@H](CNCC1CCCCCC1)O2 [Example 1, S-(+)-2-(N-Cycloheptylmethyl)aminomethyl-chroman hydrochloride] | – | 7 nM | – |
| CC(CCCNCC1CCc2ccccc2O1)c1ccccc1 (stereo not drawn) [Example 18] | – | – | 3 nM |
| c1ccc(CN2CCC(CNCC3CCc4ccccc4O3)CC2)cc1 (stereo not drawn) [Example 36] | 0.5 nM | 25 nM | – |
| COc1cccc2c1O[C@@H](CN(C)CC1CCCCCC1)CC2 [Example 13, 2-(R)-2-(N-Cycloheptylmethyl-N-methyl)aminomethyl-8-methoxy-chroman hydrochloride] | – | 5 nM | 36 nM |
| c1ccc2c(c1)CCC(CNCC13CC4CC(CC(C4)C1)C3)O2 (stereo not drawn) [Example 31] | 4.2 nM | 16 nM | – |
| COc1ccc(CNCC2CCc3cccc(OC)c3O2)cc1 (stereo not drawn) [Example 23] | – | 30 nM | 5 nM |
| c1ccc2c(c1)CCC(CNCC1CC1)O2 (stereo not drawn) [Example 28] | 2.3 nM | – | – |
